Source: US9765069B2, “Antimicrobial compounds” (OXFORD UNIVERSITY INNOVATION LIMITED, priority 2012, dated 2017)
Values after ≈ are worked out from the molar mass of the structure shown.

What was measured:
[1] = molecular target: E. Coli RNAP (Escherichia coli, UniProt P0A8T7+P0A8V2); test: In vitro activity against E. Coli RNAP; format: biochemical
Excerpt: (§1) These properties can be determined according to techniques that are well known in the art.

[2] = system: S. aureus membrane; test: In vitro activity in depolarization of S. aureus membrane; format: cell-based; conditions: read-out: DEP (IC50)
Excerpt: as §1

[3] = system: mammalian_red blood cell membrane; test: In vitro mammalian red blood cell membrane lysis activity; format: cell-based; conditions: Active or inactive at 100 μM
Excerpt: as §1

[4] = system: human embryonic kidney 293 cells; test: in vitro toxicities against human embryonic kidney 293 cells; format: cell-based; conditions: human embryonic kidney 293 cells
Excerpt: as §1

[5] = system: human peripheral blood cells; test: in vitro toxicities human peripheral blood cells; format: cell-based; conditions: human peripheral blood cells
Excerpt: as §1

[6] = aqueous solubility at pH 7.4; format: physicochemical; conditions: aqueous solubility at pH 7.4 (water with 2% DMSO)
Excerpt: as §1

[7] = system: S1; test: MIC determination (bacteria), strain S1; format: cell-based, S. aureus; conditions: 2-fold broth dilution
Description: (§2) MIC determination (bacteria); MICs were determined based on Clinical and Laboratory Standards Institute (CLSI) methodology (Methods for dilution antimicrobial susceptibility tests for bacteria that grow aerobically; Approved Standard—seventh edition. 2006, M7-A7, CLSI, Wayne Pa.) by a 2-fold broth dilution technique in Mueller Hinton (pH7.4 Biorad). For S. pneumoniae, the medium was supplemented with 2.5% laked horse blood. For H. influenzae, the medium was haemophilus test medium (H.T.M.). Overnight cultures were diluted to obtain the final inoculum of 10^5 cfu/well. Incubation was 37° C. overnight in ambient air. The MIC was defined as the lowest concentration which inhibited all visual growth and expressed in μg/ml. For each bacterial species, all of the molecules were tested in the same experiment in order to give a head-to-head comparison.

[8] = system: S26; test: MIC determination (bacteria), strain S26; format: cell-based, S. aureus; conditions: 2-fold broth dilution
Description: as §2

[9] = system: S4; test: MIC determination (bacteria), strain S4; format: cell-based, S. aureus; conditions: 2-fold broth dilution
Description: as §2

[10] = system: S2 (S. aureus 2, MRSA in vivo); test: MIC determination (bacteria), strain S2; format: cell-based; conditions: 2-fold broth dilution
Description: as §2

[11] = system: E1; test: MIC determination (bacteria), strain E1; format: cell-based, enterococcus; conditions: 2-fold broth dilution
Description: as §2

[12] = system: E2; test: MIC determination (bacteria), strain E2; format: cell-based, enterococcus; conditions: 2-fold broth dilution
Description: as §2

[13] = system: P1; test: MIC determination (bacteria), strain P1; format: cell-based, S. pneumoniae; conditions: 2-fold broth dilution
Description: as §2

[14] = system: P9; test: MIC determination (bacteria), strain P9; format: cell-based, S. pneumoniae; conditions: 2-fold broth dilution
Description: as §2

[15] = system: P9B; test: MIC determination (bacteria), strain P9B; format: cell-based, S. pneumoniae; conditions: 2-fold broth dilution
Description: as §2

[16] = system: H3; test: MIC determination (bacteria), strain H3; format: cell-based, H. influenzae; conditions: haemophilus test medium
Description: as §2

[17] = system: H4; test: MIC determination (bacteria), strain H4; format: cell-based, H. influenzae; conditions: haemophilus test medium
Description: as §2

Chain of E. Coli RNAP (P0A8V2 whole entry): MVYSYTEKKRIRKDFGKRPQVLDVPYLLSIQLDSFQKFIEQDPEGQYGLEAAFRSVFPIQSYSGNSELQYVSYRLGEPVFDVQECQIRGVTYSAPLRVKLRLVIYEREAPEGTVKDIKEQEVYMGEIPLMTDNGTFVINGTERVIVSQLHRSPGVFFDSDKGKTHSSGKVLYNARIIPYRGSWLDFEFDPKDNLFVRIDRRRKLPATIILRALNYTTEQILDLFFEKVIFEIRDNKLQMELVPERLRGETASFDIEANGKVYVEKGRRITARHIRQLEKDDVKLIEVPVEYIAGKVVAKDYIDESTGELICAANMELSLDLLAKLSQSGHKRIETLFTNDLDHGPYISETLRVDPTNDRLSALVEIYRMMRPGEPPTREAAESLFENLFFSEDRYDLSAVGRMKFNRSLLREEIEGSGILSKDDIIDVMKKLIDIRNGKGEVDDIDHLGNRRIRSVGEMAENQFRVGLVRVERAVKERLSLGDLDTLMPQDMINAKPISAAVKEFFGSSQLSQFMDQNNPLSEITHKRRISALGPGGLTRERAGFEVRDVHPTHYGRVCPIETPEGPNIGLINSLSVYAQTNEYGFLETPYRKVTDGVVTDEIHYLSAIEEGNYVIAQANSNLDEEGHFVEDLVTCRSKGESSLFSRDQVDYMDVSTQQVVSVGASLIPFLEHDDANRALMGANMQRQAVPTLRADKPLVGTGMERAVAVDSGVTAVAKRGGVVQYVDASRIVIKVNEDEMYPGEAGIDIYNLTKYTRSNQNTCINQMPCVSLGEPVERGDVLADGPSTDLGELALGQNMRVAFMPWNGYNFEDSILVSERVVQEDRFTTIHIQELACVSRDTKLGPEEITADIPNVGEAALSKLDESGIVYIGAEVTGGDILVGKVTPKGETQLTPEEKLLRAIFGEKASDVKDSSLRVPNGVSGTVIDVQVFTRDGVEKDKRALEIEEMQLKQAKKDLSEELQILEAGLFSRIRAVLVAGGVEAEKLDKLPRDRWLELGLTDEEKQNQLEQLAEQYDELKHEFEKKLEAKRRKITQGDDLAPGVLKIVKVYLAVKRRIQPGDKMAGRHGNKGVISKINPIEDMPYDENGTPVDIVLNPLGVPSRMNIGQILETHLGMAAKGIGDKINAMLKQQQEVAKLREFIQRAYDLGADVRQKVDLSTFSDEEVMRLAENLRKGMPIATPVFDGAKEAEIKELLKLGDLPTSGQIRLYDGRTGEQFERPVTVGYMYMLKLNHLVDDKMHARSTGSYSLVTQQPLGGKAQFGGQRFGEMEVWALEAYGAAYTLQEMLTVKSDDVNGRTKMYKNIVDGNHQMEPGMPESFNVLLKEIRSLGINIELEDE
Chain of E. Coli RNAP (P0A8T7 whole entry): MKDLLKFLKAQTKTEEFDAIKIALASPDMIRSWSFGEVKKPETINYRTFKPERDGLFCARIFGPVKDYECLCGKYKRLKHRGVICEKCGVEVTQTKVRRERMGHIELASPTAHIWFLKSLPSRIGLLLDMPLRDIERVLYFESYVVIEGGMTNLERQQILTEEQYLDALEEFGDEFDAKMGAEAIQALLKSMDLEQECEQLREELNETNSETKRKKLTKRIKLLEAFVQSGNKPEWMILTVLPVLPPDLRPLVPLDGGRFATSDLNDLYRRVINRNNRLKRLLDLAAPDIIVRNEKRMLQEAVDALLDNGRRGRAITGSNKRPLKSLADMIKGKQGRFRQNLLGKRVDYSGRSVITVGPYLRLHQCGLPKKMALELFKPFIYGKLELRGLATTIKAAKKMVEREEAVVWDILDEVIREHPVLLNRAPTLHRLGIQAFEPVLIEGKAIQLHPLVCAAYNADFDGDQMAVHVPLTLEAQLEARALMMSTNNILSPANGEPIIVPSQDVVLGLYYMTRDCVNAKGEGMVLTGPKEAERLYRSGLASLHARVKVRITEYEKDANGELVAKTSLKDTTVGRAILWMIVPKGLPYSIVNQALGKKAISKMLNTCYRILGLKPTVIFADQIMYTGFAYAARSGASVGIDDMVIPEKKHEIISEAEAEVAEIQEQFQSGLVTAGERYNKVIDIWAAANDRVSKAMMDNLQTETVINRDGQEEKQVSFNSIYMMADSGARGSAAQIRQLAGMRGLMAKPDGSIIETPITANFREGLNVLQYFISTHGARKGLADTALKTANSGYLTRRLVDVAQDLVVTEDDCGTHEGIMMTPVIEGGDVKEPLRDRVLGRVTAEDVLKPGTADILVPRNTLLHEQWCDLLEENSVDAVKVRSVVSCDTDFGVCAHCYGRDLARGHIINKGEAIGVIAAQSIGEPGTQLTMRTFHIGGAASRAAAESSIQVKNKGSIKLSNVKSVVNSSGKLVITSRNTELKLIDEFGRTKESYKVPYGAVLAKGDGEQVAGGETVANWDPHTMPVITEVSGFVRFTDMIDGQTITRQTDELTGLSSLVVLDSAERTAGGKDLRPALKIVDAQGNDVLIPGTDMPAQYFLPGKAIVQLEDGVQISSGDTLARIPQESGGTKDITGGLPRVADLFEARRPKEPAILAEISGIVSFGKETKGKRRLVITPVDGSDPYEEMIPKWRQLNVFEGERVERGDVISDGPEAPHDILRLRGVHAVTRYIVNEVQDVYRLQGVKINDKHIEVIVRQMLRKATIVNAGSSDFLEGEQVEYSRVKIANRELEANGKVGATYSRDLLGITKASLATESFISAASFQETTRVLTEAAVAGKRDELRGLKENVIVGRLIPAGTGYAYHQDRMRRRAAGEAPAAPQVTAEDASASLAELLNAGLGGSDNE
Chain of E. Coli RNAP (P0A7Z4 whole entry partner): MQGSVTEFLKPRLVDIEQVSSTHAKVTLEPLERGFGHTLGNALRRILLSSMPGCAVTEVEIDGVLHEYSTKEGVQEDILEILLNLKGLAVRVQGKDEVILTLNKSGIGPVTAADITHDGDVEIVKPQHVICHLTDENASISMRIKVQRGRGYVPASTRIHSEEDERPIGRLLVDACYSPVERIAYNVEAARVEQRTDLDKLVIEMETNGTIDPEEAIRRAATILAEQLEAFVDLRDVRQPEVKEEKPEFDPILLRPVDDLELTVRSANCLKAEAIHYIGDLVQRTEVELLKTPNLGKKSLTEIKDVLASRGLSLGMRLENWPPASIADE
Chain of E. Coli RNAP (P0A800 whole entry partner): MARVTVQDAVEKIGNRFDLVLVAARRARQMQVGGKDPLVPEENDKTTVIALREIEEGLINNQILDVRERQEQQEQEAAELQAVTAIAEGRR

SMILES | IC50 [1] [µM] | IC50 [2] [µM] | RBC membrane lysis activity (active/inactive) [3] | Hek293 (LD50, μM) [4] [µM] | PMBC (LD50, μM) [5] [µM] | SOL [6] [µM] | MIC S1 ([7]; Table 1) [µg/mL] | MIC S26 ([8]; Table 1) [µg/mL] | MIC S4 ([9]; Table 1) [µg/mL] | MIC S2 ([10]; Table 1) [µg/mL] | MIC E1 ([11]; Table 1) [µg/mL] | MIC E2 ([12]; Table 1) [µg/mL] | MIC P1 ([13]; Table 1) [µg/mL] | MIC P9 ([14]; Table 1) [µg/mL] | MIC P9B ([15]; Table 1) [µg/mL] | MIC H3 ([16]; Table 1) [µg/mL] | MIC H4 ([17]; Table 1) [µg/mL] | MIC S1 ([7]; Table 2) [µg/mL] | MIC S26 ([8]; Table 2) [µg/mL] | MIC S4 ([9]; Table 2) [µg/mL] | other results
CCCCCCCCCCCCC/C(O)=C1\C(=O)[C@@H]2CCCC(=O)N2C1=O [22b] | > 100 | > 100 | Active | 90.9 | >90.9 | 38 to 75 |  |  |  |  |  |  |  |  |  |  |  |  |  |  | 
CCCCCCCCCCCC(O)=C1C(=O)C(CCSC)N(C(C)=O)C1=O (stereo not drawn) [24b] | 25 |  |  | 30.3 | 90.9 | >300 | 0.25 (≈ 0.629 µM) | 2 (≈ 5.03 µM) | 1 (≈ 2.52 µM) | 1 (≈ 2.52 µM) | <0.06 | <0.06 | <0.06 | <0.06 | 0.5 (≈ 1.26 µM) | 2 (≈ 5.03 µM) | 2 (≈ 5.03 µM) |  |  |  | 
CCCCCC(O)=C1C(=O)C(CCSC)N(C(=O)CC(C)CC(C)(C)C)C1=O (stereo not drawn) [24i] | 33 | > 100 |  | 10.1 | 30.3 | >300 | 0.25 (≈ 0.607 µM) | 1 (≈ 2.43 µM) | 0.5 (≈ 1.21 µM) | 0.5 (≈ 1.21 µM) | 0.5 (≈ 1.21 µM) | 0.25 (≈ 0.607 µM) | 0.25 (≈ 0.607 µM) | 0.25 (≈ 0.607 µM) | 2 (≈ 4.86 µM) | 8 (≈ 19.4 µM) | 2 (≈ 4.86 µM) |  |  |  | RBCL (IC50, μM) [3]: Active
CCCCCCCC(O)=C1C(=O)C(CCSC)N(C(=O)CC(C)CC(C)(C)C)C1=O (stereo not drawn) [24j] | 19 | > 100 | Active | 10.1 | 30.3 | >300 | 0.5 (≈ 1.14 µM) | 1 (≈ 2.27 µM) | 0.5 (≈ 1.14 µM) | 0.5 (≈ 1.14 µM) | 0.25 (≈ 0.569 µM) | 0.25 (≈ 0.569 µM) | 0.12 (≈ 0.273 µM) | 0.12 (≈ 0.273 µM) | 4 (≈ 9.1 µM) | >64 | 2 (≈ 4.55 µM) |  |  |  | 
CCCCCCCCCC(O)=C1C(=O)CCN(C(=O)c2ccccc2)C1=O [25a] | > 100 | 83.6 | Inactive^d | >90.9 | >90.9 | >300 | 2 (≈ 5.38 µM) | 4 (≈ 10.8 µM) | 2 (≈ 5.38 µM) | 4 (≈ 10.8 µM) | 2 (≈ 5.38 µM) | 4 (≈ 10.8 µM) | 0.5 (≈ 1.35 µM) | 0.5 (≈ 1.35 µM) | 4 (≈ 10.8 µM) | 16 (≈ 43.1 µM) | 8 (≈ 21.5 µM) |  |  |  | 
CCCCCCCCCCCC(O)=C1C(=O)CCN(C(=O)c2ccccc2)C1=O [25b] | 86 | 94.4 | Inactive^d | >90.9 | >90.9 | >300 | 0.5 (≈ 1.25 µM) | 1 (≈ 2.5 µM) | 0.5 (≈ 1.25 µM) | 0.5 (≈ 1.25 µM) | 0.25 (≈ 0.626 µM) | 0.5 (≈ 1.25 µM) | 0.25 (≈ 0.626 µM) | 0.25 (≈ 0.626 µM) | 1 (≈ 2.5 µM) | 8 (≈ 20 µM) | 4 (≈ 10 µM) |  |  |  | 
CCCCCCC(=O)N1CC(=O)C(=C(O)CCCC2CCCCC2)C1=O [27c] | > 100 | > 100 |  | 30.3 | 90.9 | >200 |  |  |  |  |  |  |  |  |  |  |  | 0.25 (≈ 0.688 µM) | 1 (≈ 2.75 µM) | 0.5 (≈ 1.38 µM) | MIC S2 ([10]; Table 2): 1 µg/mL (≈ 2.75 µM); MIC E1 ([11]; Table 2): 0.5 µg/mL (≈ 1.38 µM); MIC E2 ([12]; Table 2): 0.12 µg/mL (≈ 0.33 µM); MIC P1 ([13]; Table 2): 0.12 µg/mL (≈ 0.33 µM); MIC P9 ([14]; Table 2): <0.06 µg/mL; MIC P9B ([15]; Table 2): 2 µg/mL (≈ 5.5 µM); MIC H3 ([16]; Table 2): 2 µg/mL (≈ 5.5 µM); MIC H4 ([17]; Table 2 and its footnote f): 1 µg/mL (≈ 2.75 µM)
CCCCCCC(=O)N1CC(=O)C(=C(O)CC(C)CC(C)(C)C)C1=O (stereo not drawn) [27h] | > 100 |  |  | 30.3 | 90.9 | 150 to 300 |  |  |  |  |  |  |  |  |  |  |  | 0.25 (≈ 0.711 µM) | 0.5 (≈ 1.42 µM) | 0.5 (≈ 1.42 µM) | MIC S2 ([10]; Table 2): 0.5 µg/mL (≈ 1.42 µM); MIC E1 ([11]; Table 2): 0.25 µg/mL (≈ 0.711 µM); MIC E2 ([12]; Table 2): 0.25 µg/mL (≈ 0.711 µM); MIC P1 ([13]; Table 2): <0.06 µg/mL; MIC P9 ([14]; Table 2): <0.06 µg/mL; MIC P9B ([15]; Table 2): 1 µg/mL (≈ 2.85 µM); MIC H3 ([16]; Table 2): 2 µg/mL (≈ 5.69 µM); MIC H4 ([17]; Table 2 and its footnote f): 2 µg/mL (≈ 5.69 µM)
CCCCCCC(=O)N1CC(=O)C(=C(O)CC23CC4CC(CC(C4)C2)C3)C1=O [27i] | 3.1 | > 100 |  | 10.1 | 30.3 | 67 to 200 |  |  |  |  |  |  |  |  |  |  |  | 0.25 (≈ 0.645 µM) | 0.5 (≈ 1.29 µM) | 0.25 (≈ 0.645 µM) | MIC S2 ([10]; Table 2): 0.25 µg/mL (≈ 0.645 µM); MIC E1 ([11]; Table 2): 0.12 µg/mL (≈ 0.31 µM); MIC E2 ([12]; Table 2): 0.25 µg/mL (≈ 0.645 µM); MIC P1 ([13]; Table 2): 0.12 µg/mL (≈ 0.31 µM); MIC P9 ([14]; Table 2): 0.12 µg/mL (≈ 0.31 µM); MIC P9B ([15]; Table 2): 1 µg/mL (≈ 2.58 µM); MIC H3 ([16]; Table 2): 2 µg/mL (≈ 5.16 µM); MIC H4 ([17]; Table 2 and its footnote f): 1 µg/mL (≈ 2.58 µM); RBCL (IC50, μM) [3]: Active
CCCCCCC(=O)N1CC(=O)C(=C(O)CCCOc2ccc(Cl)cc2C)C1=O [28h] | 33 |  |  | 30.3 | 90.9 | >300 |  |  |  |  |  |  |  |  |  |  |  | 1 (≈ 2.37 µM) | 4 (≈ 9.48 µM) | 4 (≈ 9.48 µM) | MIC S2 ([10]; Table 2): 2 µg/mL (≈ 4.74 µM); MIC E1 ([11]; Table 2): 0.5 µg/mL (≈ 1.19 µM); MIC E2 ([12]; Table 2): 0.5 µg/mL (≈ 1.19 µM); MIC P1 ([13]; Table 2): 0.5 µg/mL (≈ 1.19 µM); MIC P9 ([14]; Table 2): 0.5 µg/mL (≈ 1.19 µM); MIC P9B ([15]; Table 2): 4 µg/mL (≈ 9.48 µM); MIC H3 ([16]; Table 2): 8 µg/mL (≈ 19 µM); MIC H4 ([17]; Table 2 and its footnote f): 4 µg/mL (≈ 9.48 µM)
CNC(=O)[C@@H](C)[C@H]1C(=O)/C(=C(O)/C=C/C(C)=C/[C@@H](C)[C@H]2O[C@@]3(C)O[C@H](C=C[C@@]34CO4)[C@@H]2C)C(=O)N1[C@@H]1CC[C@H](O)[C@H](C)O1 [streptolydigin, reference compound] | 38 |  |  |  |  |  |  |  |  |  |  |  |  |  |  |  |  |  |  |  | 
